Source: patent publication US12545677B2, “Compounds useful as factor XIa inhibitors” (JANSSEN PHARMACEUTICA NV, priority 2020, dated 2026)
pIC50: −log10 of the molar value. Where two headings read alike, the source gives them in different places.

Key:
Rat PK study = type: in vivo, Sprague-Dawley rats
Protocol: Biological Example 5: PK Studies
Animals: Male Sprague-Dawley rats (7-8 weeks old, body weight 250-300 g) were kept in plastic cages with free access to standard rat diet (Keaoxieli, Beijing, China) and water. The animals were maintained at a temperature of 20-25° C. with a 12-hour light/dark cycle and relative humidity of 40%-70% before the experiment.
Pharmacokinetics in rats: The cannulation of the jugular vein was pre-treated to the rats 2-3 days prior to the study. Test compound (dissolved in PEG400/water (1:1) or suspended in 0.5% HPMC) was administered orally via oral gavage at a dose of 5 or 10 mg/kg to 3 rats, and test compound (dissolved in 20% HPbCD or PEG400/water (1:1)) was injected to the tail vein at a dose of 1 or 2 mg/kg to 3 rats.
Blood samples (approximately 0.2 ml, each) were collected from the jugular vein at 0 (as a pre-dose), 5 (only for IV administration), 15, 30, 60, 120, 240, 360, 480 and 1440 mins post dose. A volume of 0.2 ml of heparinized 0.9% NaCl injectable solution (50 U/mL) was used to flush each cannula immediately after obtaining each blood sample, in order to prevent blood clotting and to compensate for fluid loss. Blood samples were separated by centrifugation, and approximately 0.1 ml aliquot of plasma was stored at −80° C. until analysis.
LC-MS/MS analysis: The analyte was assayed by a liquid chromatography coupled with tandem mass spectrometry (LC-MS/MS) method. The LC-MS/MS system consisted of a Shimadzu HPLC system (Kyoto, Japan) and API 5500 triple-quadrupole mass spectrometer equipped with a turbo electrospray ionization (ESI) source (AB Sciex, Toronto, Canada). LC conditions were as follows: column, Synergi 2.5μ Polar-RP 100A (50*3.0 mm) (Phenomenex, Torrance, CA); gradient elution at 0.5 mL/min with 5% acetonitrile in water containing 0.1% formic acid or 95% acetonitrile in water containing 0.1% formic acid; and injection volume, 10 μL. A multiple reaction monitoring (MRM) method was selected for quantitative analysis. The optimized transitions were Q1→Q3 and M1→M3 for analyte and internal standard, respectively. The instrumental parameters were set as follows: ion spray voltage: 5500 V; curtain gas: 30 psi; nebulizer gas: 50 psi; turbo gas: 50 psi; collision gas: 10 psi; temperature: 450° C.
Data analysis: Standard methods were used to calculate the pharmacokinetic parameters, such as the total area under the plasma concentration-time curve from time 0 to infinity (AUC0-t) and terminal half-life, using non-compartmental analysis (WinNonlin), the peak plasma concentration (Cmax) and time to reach Cmax (Tmax) were determined directly from the experimental data.

Factor XIa = Factor XIa (Homo sapiens, UniProt P03951); test: Factor XIa inhibition assay using fluorophore-quencher pair peptide substrate; type: biochemical
Description: Biological Example 1: Factor XIa Inhibition Assay
Using Fluorophore-quencher Pair Peptide Substrate
A fluorescence intensity-based assay was used to monitor inhibition of Factor XIa. The peptide substrate, 5Fam-[…]-K5Tamra (purchased from New England Peptide) was chosen based on the […]. Conversion of zymogen FIX to its activated form, FIXa, occurs by proteolytic cleavage by FXIa at two sites, Arg146 and Arg180. The custom peptide used in this assay was based on the Arg146 cleavage site. The peptide substrate was designed with a fluorophore-quencher pair, where the fluorescence is quenched until FXIa cleaves the 8-mer peptide after the Arg residue.
Factor XIa FLINT assay was used with the following 5Fam-[…]-K5Tamra assay buffer: 50 mM Tris, pH 7.5, 100 mM NaCl, 5 mM CaCl2, 0.1 mg/mL BSA, 0.03% CHAPS was used. Assay buffer was prepared by mixing all ingredients fresh. 2×5Fam-[…]-K5Tamra peptide substrate was first prepared in 100% DMSO, then diluted 10 mM to 3 mM in 100% DMSO. Assay buffer was then added directly to the 3 mM stock of substrate to prepare the 30 μM 2× working concentration (15 μM final concentration). The 2× Factor XIa stock solution was prepared by diluting 6.562 μM stock in 1× assay buffer for a 200 pM working stock solution (100 pM final concentration).
Test compound(s) were run in an 11-point, 3-fold serial dilution with a final top compound concentration of […]. Final DMSO in assay was 2% DMSO. FXIa and compound were pre-incubated for 30 minutes and substrate was then added to initiate the reaction. The assay was linear using 100 pM FXIa greater than 30 minutes. More specifically, the assay was run as follows: • 100 nL of 1 mM test compound was dispensed into a black 384-well non-binding Greiner BioOne 784900 plate for 10 μM final concentration with 1% DMSO final concentration; • 5 μL of 1× assay buffer was dispensed to column 24 (low control) and 5 μL 2× Factor XIa solution was dispensed to columns 1-23 (column 23 high control); • the plate was centrifuged with a “cover” plate at 500 rpm for 1 min • the plate was pre-incubated for 30 minutes at room temperature with plate covered; • 5 μL of 2× 5Fam-[…]-K5Tamra peptide substrate was dispensed into the entire plate, columns 1-24; • the plate was centrifuged with a cover plate at 500 rpm for 1 min; • the plate was read kinetically monitoring fluorescence intensity on the BMG PHERAStar at room temperature, using fluorescence module F1 485 mm/520 mm.
Percent inhibition (IC50) curves were generated per compound tested, and data was analyzed using a 4-parameter logistic fit using GeneData Screener. […]

Factor XIa, sequence (P03951 388-625 limits assumed): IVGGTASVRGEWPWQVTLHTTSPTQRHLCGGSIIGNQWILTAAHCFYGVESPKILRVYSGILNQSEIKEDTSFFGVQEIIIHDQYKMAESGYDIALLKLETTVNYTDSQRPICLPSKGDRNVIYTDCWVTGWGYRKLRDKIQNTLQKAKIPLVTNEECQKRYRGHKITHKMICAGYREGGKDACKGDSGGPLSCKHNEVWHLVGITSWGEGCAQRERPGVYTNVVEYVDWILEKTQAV
Factor XIa, sequence (P03951 19-387 partner limits assumed): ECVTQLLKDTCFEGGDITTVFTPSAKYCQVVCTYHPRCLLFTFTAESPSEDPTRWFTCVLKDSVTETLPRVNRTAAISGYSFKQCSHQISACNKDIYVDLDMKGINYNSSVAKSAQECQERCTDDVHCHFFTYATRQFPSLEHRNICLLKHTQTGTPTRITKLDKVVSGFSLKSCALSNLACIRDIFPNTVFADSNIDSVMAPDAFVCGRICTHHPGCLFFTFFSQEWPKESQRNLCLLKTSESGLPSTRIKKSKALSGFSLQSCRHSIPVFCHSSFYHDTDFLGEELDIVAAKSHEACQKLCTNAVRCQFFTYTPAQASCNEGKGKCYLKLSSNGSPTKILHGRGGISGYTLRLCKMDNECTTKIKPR

SMILES	F (Rat PK study; formulation vehicle: 0.5% HPMC at 10 mg/kg)	clearance (Rat PK study; male, Sprague-Dawley, plasma, IV, 20% HPbCD at 2 mg/kg) [mL/min/kg]	half-life (Rat PK study; male, Sprague-Dawley, plasma, IV, formulation vehicle: 20% HPbCD at 2 mg/kg, read-out: t1/2 (IV) (converted)) [h]	Cmax (Rat PK study; male, Sprague-Dawley, plasma, PO, 0.5% HPMC at 10 mg/kg) [ng/mL]	half-life (Rat PK study; male, Sprague-Dawley, plasma, PO, 0.5% HPMC at 10 mg/kg, read-out: t1/2 (PO) (converted)) [h]	pIC50 (Factor XIa)
O=C1C=C(c2c(-n3cnnn3)ccc(Cl)c2F)C[C@H]2CC[C@@H](c3ncc(-c4ccnc(CO)c4F)[nH]3)N12 [Compound of formula (I-A), (3S,8aR)-7-(3-Chloro-2-fluoro-6-(1H-tetrazol-1-yl)phenyl)-3-(5-(3-fluoro-2-(hydroxymethyl)pyridin-4-yl)-1H-imidazol-2-yl)-2,3,8,8a-tetrahydroindolizin-5(1H)-one]	53.4% (formulation vehicle: 0.5% HPMC at 10 mg/kg)	19.6	3.25	3770	2.66	–
O=C(O)c1nccc(-c2cnc([C@@H]3CC[C@@H]4CC(c5c(-n6cnnn6)ccc(Cl)c5F)=CC(=O)N43)[nH]2)c1F [Compound of formula (II-A), 4-(2-((3S,8aR)-7-(3-chloro-2-fluoro-6-(1H-tetrazol-1-yl)phenyl)-5-oxo-1,2,3,5,8,8a-hexahydroindolizin-3-yl)-1H-imidazol-5-yl)-3-fluoropicolinic acid]	–	–	–	–	–	9.52
